ChEMBL document CHEMBL1201862, “PubChem BioAssay data set” (2004)
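Following 48 hours of exposure in 96-well plates, responses at five concentrations were used to interpolate endpoints linearly. Abbreviation: GI50, concentration required for 50% inhibition of growth.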 Active and inactive are the calls of the source. Cut-off read from the data, not from the text of the source: active = GI50 up to about 1.1 µM and inactive = higher.

Tests used:
Assay in all cases: growth of human tumour cells (NCI), 48 h
A498 = tested on: A498
HCT-15 = tested on: HCT-15
HOP-62 = tested on: HOP-62
HT-29 = tested on: HT-29
MCF7 = tested on: MCF7
MDA-MB-435 = tested on: MDA-MB-435
MDA-N = tested on: MDA-N
OVCAR-5 = tested on: OVCAR-5
PC-3 = tested on: PC-3
SF-268 = tested on: SF-268
SK-MEL-28 = tested on: SK-MEL-28
SK-MEL-5 = tested on: SK-MEL-5
SNB-19 = tested on: SNB-19
SR = tested on: SR
SW-620 = tested on: SW-620
T47D = tested on: T47D
TK-10 = tested on: TK-10
U-251 = tested on: U-251
CAKI-1 = tested on: CAKI-1
SF-539 = tested on: SF-539

CN(C)CCN(C)P12(Oc3ccccc3O1)Oc1c(Cl)c(Cl)c(Cl)c(Cl)c1O2
GI50 (A498): 60.5 µM (inactive)
GI50 (HCT-15): 40 µM
GI50 (HOP-62): 45 µM (inactive)
GI50 (HT-29): 43.8 µM (inactive)
GI50 (MCF7): 33.7 µM (inactive)
GI50 (MDA-MB-435): 50.9 µM (inactive)
GI50 (MDA-N): 48.4 µM (inactive)
GI50 (OVCAR-5): 46.1 µM (inactive)
GI50 (PC-3): 33.7 µM (inactive)
GI50 (SF-268): 36.1 µM (inactive)
GI50 (SK-MEL-28): > 100 µM (inactive)
GI50 (SK-MEL-5): 58.6 µM (inactive)
GI50 (SNB-19): 56.6 µM (inactive)
GI50 (SR): 35.2 µM (inactive)
GI50 (SW-620): 47.4 µM (inactive)
GI50 (T47D): 59.8 µM (inactive)
GI50 (TK-10): > 100 µM (inactive)
GI50 (U-251): 56.5 µM (inactive)

CCOC(=O)CCC(NC(=O)c1ccc(NCc2ccc3nc(OC)c(OC)nc3c2)c2ccccc12)C(=O)OCC (configuration not stated)
GI50 (A498): 61.8 µM (inactive)
GI50 (CAKI-1): > 100 µM (inactive)
GI50 (HCT-15): > 100 µM
GI50 (HOP-62): 25.9 µM (inactive)
GI50 (HT-29): > 100 µM (inactive)
GI50 (MCF7): 84.9 µM (inactive)
GI50 (MDA-MB-435): > 100 µM (inactive)
GI50 (MDA-N): > 100 µM (inactive)
GI50 (OVCAR-5): > 100 µM (inactive)
GI50 (PC-3): 61.4 µM (inactive)
GI50 (SF-268): 42.7 µM (inactive)
GI50 (SF-539): 20.8 µM (inactive)
GI50 (SK-MEL-28): > 100 µM (inactive)
GI50 (SK-MEL-5): 58.1 µM (inactive)
GI50 (SNB-19): 76.2 µM (inactive)
GI50 (SW-620): > 100 µM (inactive)
GI50 (T47D): > 100 µM (inactive)
GI50 (TK-10): 66.2 µM (inactive)
GI50 (U-251): 40.5 µM (inactive)

Cc1ccccc1C(=O)C#Cc1cn(C2CC(O)C(CO)O2)c(=O)[nH]c1=O (configuration not stated)
GI50 (CAKI-1): > 100 µM (inactive)
GI50 (HCT-15): > 100 µM
GI50 (HOP-62): > 100 µM (inactive)
GI50 (HT-29): > 100 µM (inactive)
GI50 (MCF7): > 100 µM (inactive)
GI50 (MDA-MB-435): > 100 µM (inactive)
GI50 (MDA-N): > 100 µM (inactive)
GI50 (PC-3): > 100 µM (inactive)
GI50 (SF-268): > 100 µM (inactive)
GI50 (SF-539): > 100 µM (inactive)
GI50 (SK-MEL-28): > 100 µM (inactive)
GI50 (SK-MEL-5): > 100 µM (inactive)
GI50 (SNB-19): > 100 µM (inactive)
GI50 (SR): 27.9 µM (inactive)
GI50 (SW-620): > 100 µM (inactive)
GI50 (T47D): 68.2 µM (inactive)
GI50 (TK-10): > 100 µM (inactive)
GI50 (U-251): > 100 µM (inactive)

[N-]=[N+]=Nc1ccccc1-c1ccccc1[N+](=O)[O-]
GI50 (A498): 45 µM (inactive)
GI50 (CAKI-1): > 100 µM (inactive)
GI50 (HCT-15): 42.6 µM
GI50 (HOP-62): 87.9 µM (inactive)
GI50 (HT-29): 44.3 µM (inactive)
GI50 (MCF7): 52 µM (inactive)
GI50 (MDA-MB-435): 32.3 µM (inactive)
GI50 (MDA-N): 30.9 µM (inactive)
GI50 (OVCAR-5): > 100 µM (inactive)
GI50 (PC-3): 37.8 µM (inactive)
GI50 (SF-268): 36.1 µM (inactive)
GI50 (SK-MEL-28): > 100 µM (inactive)
GI50 (SNB-19): > 100 µM (inactive)
GI50 (SR): 28.1 µM (inactive)
GI50 (SW-620): 48.5 µM (inactive)
GI50 (T47D): 38.4 µM (inactive)
GI50 (TK-10): 39.4 µM (inactive)
GI50 (U-251): 42.9 µM (inactive)

Cc1cc2c(c(C(=O)NCC(=O)N[C@@H](C)C(=O)OCc3ccccc3)c1)Oc1c(cc(C)cc1C(=O)NCC(=O)N[C@@H](C)C(=O)OCc1ccccc1)S2
GI50 (A498): > 100 µM (inactive)
GI50 (CAKI-1): > 100 µM (inactive)
GI50 (HCT-15): > 100 µM
GI50 (HOP-62): 71.3 µM (inactive)
GI50 (HT-29): > 100 µM (inactive)
GI50 (MCF7): > 100 µM (inactive)
GI50 (MDA-MB-435): > 100 µM (inactive)
GI50 (MDA-N): > 100 µM (inactive)
GI50 (OVCAR-5): > 100 µM (inactive)
GI50 (PC-3): > 100 µM (inactive)
GI50 (SF-268): 37.2 µM (inactive)
GI50 (SK-MEL-5): > 100 µM (inactive)
GI50 (SNB-19): > 100 µM (inactive)
GI50 (SR): 17.8 µM (inactive)
GI50 (SW-620): > 100 µM (inactive)
GI50 (T47D): 2.41 µM (inactive)
GI50 (U-251): > 100 µM (inactive)

C=CCC1NCCC2=C1C(S(=O)(=O)c1ccc(C)cc1)c1ccccc12 (configuration not stated)
GI50 (A498): 19 µM (inactive)
GI50 (CAKI-1): 6.92 µM (inactive)
GI50 (HCT-15): 11.9 µM
GI50 (HOP-62): 14.5 µM (inactive)
GI50 (HT-29): 16 µM (inactive)
GI50 (MCF7): 7.13 µM (inactive)
GI50 (MDA-MB-435): 5.47 µM (inactive)
GI50 (MDA-N): 6.9 µM (inactive)
GI50 (OVCAR-5): 18.1 µM (inactive)
GI50 (PC-3): 10.4 µM (inactive)
GI50 (SF-268): 14.9 µM (inactive)
GI50 (SK-MEL-28): 12.4 µM (inactive)
GI50 (SK-MEL-5): 14.3 µM (inactive)
GI50 (SNB-19): 16.5 µM (inactive)
GI50 (SR): 3.64 µM (inactive)
GI50 (SW-620): 14.2 µM (inactive)
GI50 (T47D): 10.4 µM (inactive)
GI50 (TK-10): 16.4 µM (inactive)
GI50 (U-251): 11.5 µM (inactive)

C[C@H](NC(=O)CNC(=O)CCCCCC(=O)NCC(=O)N[C@@H](C)C(=O)OCc1ccccc1)C(=O)OCc1ccccc1
GI50 (CAKI-1): > 100 µM (inactive)
GI50 (HCT-15): > 100 µM
GI50 (HOP-62): > 100 µM (inactive)
GI50 (HT-29): > 100 µM (inactive)
GI50 (MCF7): > 100 µM (inactive)
GI50 (MDA-MB-435): > 100 µM (inactive)
GI50 (MDA-N): > 100 µM (inactive)
GI50 (OVCAR-5): > 100 µM (inactive)
GI50 (PC-3): > 100 µM (inactive)
GI50 (SF-268): > 100 µM (inactive)
GI50 (SF-539): > 100 µM (inactive)
GI50 (SK-MEL-28): > 100 µM (inactive)
GI50 (SNB-19): > 100 µM (inactive)
GI50 (SR): > 100 µM (inactive)
GI50 (SW-620): > 100 µM (inactive)
GI50 (T47D): > 100 µM (inactive)
GI50 (TK-10): > 100 µM (inactive)
GI50 (U-251): > 100 µM (inactive)

COc1cc(N(CCC#N)CCC#N)ccc1C(=N/NC(=O)c1cc(Br)ccc1O)/N=N/c1ccccc1
GI50 (CAKI-1): 27 µM (inactive)
GI50 (HCT-15): 24.7 µM
GI50 (HOP-62): 24 µM (inactive)
GI50 (HT-29): 24.9 µM (inactive)
GI50 (MCF7): 18.9 µM (inactive)
GI50 (MDA-MB-435): 36.6 µM (inactive)
GI50 (MDA-N): 30.1 µM (inactive)
GI50 (OVCAR-5): 38.1 µM (inactive)
GI50 (PC-3): 25.5 µM (inactive)
GI50 (SF-268): 28.5 µM (inactive)
GI50 (SF-539): 34.2 µM (inactive)
GI50 (SK-MEL-28): 27.9 µM (inactive)
GI50 (SK-MEL-5): 20.1 µM (inactive)
GI50 (SNB-19): 32.1 µM (inactive)
GI50 (SR): 16.9 µM (inactive)
GI50 (SW-620): 31.6 µM (inactive)
GI50 (T47D): 24 µM (inactive)
GI50 (TK-10): 33.1 µM (inactive)
GI50 (U-251): 32.1 µM (inactive)

Cc1c(C)c2ccc(O)cc2[nH]c1=O
GI50 (A498): > 100 µM (inactive)
GI50 (CAKI-1): > 100 µM (inactive)
GI50 (HCT-15): > 100 µM
GI50 (HOP-62): > 100 µM (inactive)
GI50 (HT-29): > 100 µM (inactive)
GI50 (MCF7): > 100 µM (inactive)
GI50 (MDA-MB-435): > 100 µM (inactive)
GI50 (MDA-N): > 100 µM (inactive)
GI50 (OVCAR-5): > 100 µM (inactive)
GI50 (PC-3): > 100 µM (inactive)
GI50 (SF-539): > 100 µM (inactive)
GI50 (SK-MEL-28): > 100 µM (inactive)
GI50 (SK-MEL-5): > 100 µM (inactive)
GI50 (SNB-19): > 100 µM (inactive)
GI50 (SR): > 100 µM (inactive)
GI50 (SW-620): > 100 µM (inactive)
GI50 (T47D): > 100 µM (inactive)
GI50 (U-251): > 100 µM (inactive)

Nn1c(-c2ccccc2)nn(C(=O)c2ccccc2)c1=O
GI50 (A498): > 100 µM (inactive)
GI50 (HCT-15): > 100 µM
GI50 (HOP-62): > 100 µM (inactive)
GI50 (HT-29): > 100 µM (inactive)
GI50 (MCF7): > 100 µM (inactive)
GI50 (MDA-MB-435): > 100 µM (inactive)
GI50 (MDA-N): > 100 µM (inactive)
GI50 (OVCAR-5): > 100 µM (inactive)
GI50 (PC-3): > 100 µM (inactive)
GI50 (SF-268): > 100 µM (inactive)
GI50 (SF-539): > 100 µM (inactive)
GI50 (SK-MEL-28): > 100 µM (inactive)
GI50 (SK-MEL-5): > 100 µM (inactive)
GI50 (SNB-19): > 100 µM (inactive)
GI50 (SR): > 100 µM (inactive)
GI50 (SW-620): > 100 µM (inactive)
GI50 (T47D): > 100 µM (inactive)
GI50 (TK-10): > 100 µM (inactive)
GI50 (U-251): > 100 µM (inactive)

COc1cc2c(cc1C)NC(=O)/C2=C/c1c(Cl)n(C)c2ccccc12
GI50 (A498): 5.86 µM (inactive)
GI50 (CAKI-1): 5.06 µM (inactive)
GI50 (HCT-15): 3.98 µM
GI50 (HOP-62): 11.1 µM (inactive)
GI50 (HT-29): 6.08 µM (inactive)
GI50 (MCF7): 3.45 µM (inactive)
GI50 (MDA-MB-435): 1.71 µM (inactive)
GI50 (MDA-N): 2.15 µM (inactive)
GI50 (OVCAR-5): 12.5 µM (inactive)
GI50 (PC-3): 5.38 µM (inactive)
GI50 (SF-268): 4.48 µM (inactive)
GI50 (SF-539): 12.1 µM (inactive)
GI50 (SK-MEL-28): 13 µM (inactive)
GI50 (SK-MEL-5): 4.79 µM (inactive)
GI50 (SNB-19): 12.8 µM (inactive)
GI50 (SW-620): 3.05 µM (inactive)
GI50 (T47D): 2.62 µM (inactive)
GI50 (TK-10): 12.4 µM (inactive)
GI50 (U-251): 10 µM (inactive)
